Patent publication US20150182550A1, “INHIBITORS OF THE INTERACTION OF THE SIGMA-1 RECEPTOR WITH hERG FOR USE IN THE TREATMENT OF CANCER” (CENTRE NATIONAL DE LA RECHERCHE SCIENTIFIQUE - CNRS, priority 2011, published 2015)

Key:
[1] = system: hERG channels; experiment: Whole-cell patch-clamp of hERG tail currents in K562 cells; settings: 10 μM
Protocol: “Patch-clamp” electrophysiology experiments were carried out in the whole cell configuration. […] This protocol makes it possible to record transient inward currents, the amplitude of which correlates with the depolarization involved during the prepulses. […] (FIGS. 1A,B).
In order to verify a potential interaction between Sig1R and hERG, the effects of selective Sig1R ligands, i.e. igmesine and (+)pentazocine were analyzed with respect to the current. […] The effects of igmesine (10 μM) were then studied on I/V curves recorded at from −70 to 40 mV.
Patch-clamp experiments were then carried out in the K562 shRD and shSig1R cell lines in order to analyze the possible consequences of Sig1R silencing on the properties of hERG.

[2] = system: K562 cells; experiment: Adhesion of K562 cells to fibronectin (FN); format: cell-based, human; settings: for FN-dependent specific cell adhesion: wild-type K562 cells, 10 μM
Text: FIGS. 8A-8B represents the inhibition of the adhesion of K562 cells to FN by igmesine, E-4031 and Sig1R silencing. […] The values represent the mean±standard error of 6 to 9 independent experiments. NS: not significant (Student's t test). […] The values represent the mean±standard error of 12 independent experiments. ***p<0.001 (Student's t test). In one experiment, each value is the mean of three distinct wells.
The role of the Sig1R/hERG interaction on integrin-dependent cell adhesion to the extracellular matrix (ECM) has been tested in vitro. The expression of a single integrin subtype, i.e. integrin α5β1, has been reported in K562 cells. This integrin has a high affinity for fibronectin (FN), a component of the extracellular matrix (ECM). […] In the wild-type cells, the hERG channel blocker (E-4031) and igmesine inhibited FN-dependent specific cell adhesion. […] Likewise, the Sigma ligands no longer have any effect on the adhesion of the shSig1R cells (not represented).

| SMILES | effect of extracellular application on hERG currents ([1]; K562 cells) | hERG current reduced by ([1]; extracellular application, tail current at −120 mV, K562 cells) [%] | FN-dependent specific cell adhesion [2] | hERG current reduced by ([1]; human) [%] | shift towards the left of the half-activation voltage value ([1]; human) [mV] | additive effect on adhesion to FN compared with E-4031 alone ([2]; E4031+igmesine 10 μM each, K562 cells) |
| --- | --- | --- | --- | --- | --- | --- |
| CC(C)=CCN1CCC2(C)c3cc(O)ccc3CC1C2C (single isomer, unassigned; (+)) [(+)pentazocine] | reversibly inhibited | 21.19±1.77 | – | – | – | – |
| Cc1cccc(CCN2CCC(C(=O)c3ccc(NS(C)(=O)=O)cc3)CC2)n1 [E-4031] | – | – | inhibited | – | – | – |
| CCC(C/C=C/c1ccccc1)(c1ccccc1)N(C)CC1CC1 (stereo not shown) [igmesine] | – | – | inhibited | 40.85±2.83 | ~10 | did not produce an additive effect |
